Test results: patent publication US20210116454A1, “METHODS FOR TREATING A HEMATOLOGICAL CANCER AND THE USE OF COMPANION BIOMARKERS FOR 2-(2,6-DIOXOPIPERIDIN-3-YL)-4-((2-FLUORO-4-((3-MORPHOLINOAZETIDIN-1-YL)METHYL)BENZYL)AMINO)ISOINDOLINE-1,3-DIONE” (CELGENE CORPORATION, priority 2019, published 2021)
Read-outs that look alike come from different tables or passages of the source.

How the values were obtained:
Assay in all cases: 5-day viable cell number and apoptosis (7-AAD exclusion/Annexin V flow cytometry)
Assay type in all cases: cell-based
[1] = test system: SU-DHL-4
From the text: (§1) The DLBCL panel includes seven cell lines classified as activated B-cell (ABC) subtype, thirteen cell lines classified as the germinal center B-cell (GCB) subtype, and three cell lines classified as primary mediastinal B-cell lymphoma (PMBL). […] The translocation of MYC, BCL6, or BCL2 to an IG locus usually leads to high levels of mRNA and protein due to the active transcription driven by a constitutively active IG promoter. […] Expressions of CRBN protein and known substrates, Ikaros, Aiolos, and ZFP91 were also evaluated (FIG. 1, panels B and C).
(§2) The panel of cell lines were treated with increasing doses of compounds for five days, at which time the number of viable cells was measured and the amount of apoptosis was determined by 7-AAD exclusion and Annexin V staining using flow cytometry.

[2] = test system: SU-DHL-2
From the text: as §1, §2

[3] = test system: WSU-DLCL2
From the text: as §1, §2

[4] = test system: SU-DHL-8
From the text: as §1, §2

[5] = test system: U2940; details: U2940 cells, 5 days
From the text: as §1, §2

[6] = test system: RIVA
From the text: as §1, §2

[7] = test system: HT
From the text: as §1, §2

[8] = test system: KARPAS-1106P
From the text: as §1, §2

[9] = test system: SU-DHL-10
From the text: as §1, §2

[10] = Homo sapiens, 120 h, SU-DHL-4 cells, 5 days
[11] = Homo sapiens, 120 h, SU-DHL-2 cells, 5 days
[12] = Homo sapiens, WSUDLCL2, 120 h, WSU-DLCL2 cells, 5 days
[13] = Homo sapiens, 120 h, SU-DHL-8 cells, 5 days
[14] = Homo sapiens, 120 h, HT cells, 5 days
[15] = Homo sapiens, 120 h, KARPAS-1106P cells, 5 days
[16] = Homo sapiens, SU-DHL10, 120 h, SU-DHL-10 cells, 5 days

O=C1CC[C@H](N2C(=O)c3cccc(NCc4ccc(CN5CC(N6CCOCC6)C5)cc4F)c3C2=O)C(=O)N1 [Compound 1, (S)-2-(2,6-dioxopiperidin-3-yl)-4-((2-fluoro-4-((3-morpholinoazetidin-1-yl)methyl)benzyl)amino)isoindoline-1,3-dione]
EC50 [1, 10]: 452 nM | Emax [1, 10]: 18.9% | IC50 ([1]; Homo sapiens, 120 h, SU-DHL-4 cells, 5 days, read-out: % Viable Cells IC50): 500 nM | IC50 ([1]; Homo sapiens, SU-DHL-4 cells (Table 3), read-out: IC50): 457000 nM | % Viable Cells AUC ([1]; SU-DHL-4 cells, 5 days): 457.4 | % Viable Cells Emax ([1]; SU-DHL-4 cells, 5 days): 41.79% | % Viable Cells Sensitivity ([1]; SU-DHL-4 cells, 5 days): Intermediate (intermediate sensitivity with 15% to 55% cell viability) | Apoptosis AUC ([1]; SU-DHL-4 cells, 5 days): 155.2 | Apoptosis Sensitivity ([1]; SU-DHL-4 cells, 5 days): Intermediate | EC50 [2, 11]: 7.78 nM | Emax [2, 11]: 75.2% | IC50 ([2]; Homo sapiens, 120 h, SU-DHL-2 cells, 5 days, read-out: % Viable Cells IC50): 1.3 nM | IC50 ([2]; Homo sapiens, SU-DHL-2 cells (Table 3), read-out: IC50): 7000 nM | % Viable Cells AUC ([2]; SU-DHL-2 cells, 5 days): 6.871 | % Viable Cells Emax ([2]; SU-DHL-2 cells, 5 days): 1.264% | % Viable Cells Sensitivity ([2]; SU-DHL-2 cells, 5 days): High (highly sensitive to Compound 1 with less than 6% viable cells remaining (Emax) after treatment) | Apoptosis AUC ([2]; SU-DHL-2 cells, 5 days): 745 | Apoptosis Sensitivity ([2]; SU-DHL-2 cells, 5 days): High | EC50 [3, 12]: 77 nM | Emax [3, 12]: 47.8% | IC50 ([3]; Homo sapiens, WSUDLCL2, 120 h, WSU-DLCL2 cells, 5 days, read-out: % Viable Cells IC50): 20 nM | IC50 ([3]; Homo sapiens, WSUDLCL2, WSU-DLCL2 cells (Table 3), read-out: IC50): 174000 nM | % Viable Cells AUC ([3]; WSU-DLCL2 cells, 5 days): 173.8 | % Viable Cells Emax ([3]; WSU-DLCL2 cells, 5 days): 1.36% | % Viable Cells Sensitivity ([3]; WSU-DLCL2 cells, 5 days): High (highly sensitive to Compound 1 with less than 6% viable cells remaining (Emax) after treatment) | Apoptosis AUC ([3]; WSU-DLCL2 cells, 5 days): 464.5 | Apoptosis Sensitivity ([3]; WSU-DLCL2 cells, 5 days): High | EC50 [4, 13]: 509 nM | Emax [4, 13]: 70.5% | IC50 ([4]; Homo sapiens, 120 h, SU-DHL-8 cells, 5 days, read-out: % Viable Cells IC50): 250 nM | IC50 ([4]; Homo sapiens, SU-DHL-8 cells (Table 3), read-out: IC50): 54000 nM | % Viable Cells AUC ([4]; SU-DHL-8 cells, 5 days): 54.43 | % Viable Cells Emax ([4]; SU-DHL-8 cells, 5 days): 2.508% | % Viable Cells Sensitivity ([4]; SU-DHL-8 cells, 5 days): High (highly sensitive to Compound 1 with less than 6% viable cells remaining (Emax) after treatment) | Apoptosis AUC ([4]; SU-DHL-8 cells, 5 days): 652.5 | Apoptosis Sensitivity ([4]; SU-DHL-8 cells, 5 days): High | EC50 ([5]; Homo sapiens, U-2940, 120 h): 67.9 nM | Emax ([5]; Homo sapiens, U-2940, 120 h): 29% | IC50 ([5]; Homo sapiens, U-2940, 120 h, read-out: % Viable Cells IC50): 35 nM | % Viable Cells AUC [5]: 289.1 | % Viable Cells Emax [5]: 29.24% | % Viable Cells Sensitivity [5]: Intermediate (intermediate sensitivity with 15% to 55% cell viability) | Apoptosis AUC [5]: 267.4 | Apoptosis Sensitivity [5]: Intermediate | EC50 ([6]; 120 h, RIVA cells, 5 days): 19 nM | Emax ([6]; 120 h, RIVA cells, 5 days): 22.7% | IC50 ([6]; 120 h, RIVA cells, 5 days, read-out: % Viable Cells IC50): 50 nM | IC50 ([6]; RIVA cells (Table 3), read-out: IC50): 396000 nM | % Viable Cells AUC ([6]; RIVA cells, 5 days): 395.8 | % Viable Cells Emax ([6]; RIVA cells, 5 days): 36.99% | % Viable Cells Sensitivity ([6]; RIVA cells, 5 days): Intermediate (intermediate sensitivity with 15% to 55% cell viability) | Apoptosis AUC ([6]; RIVA cells, 5 days): 216.6 | Apoptosis Sensitivity ([6]; RIVA cells, 5 days): Intermediate | % Viable Cells AUC ([7]; HT cells, 5 days): 434.8 | % Viable Cells Emax ([7]; HT cells, 5 days): 45.18% | % Viable Cells Sensitivity ([7]; HT cells, 5 days): Intermediate (intermediate sensitivity with 15% to 55% cell viability) | Apoptosis AUC ([7]; HT cells, 5 days): 158.2 | Apoptosis Sensitivity ([7]; HT cells, 5 days): Intermediate | EC50 [7, 14]: 7.82 nM | Emax [7, 14]: 16.6% | IC50 ([7]; Homo sapiens, 120 h, HT cells, 5 days, read-out: % Viable Cells IC50): 470 nM | IC50 ([7]; Homo sapiens, HT cells (Table 3), read-out: IC50): 435000 nM | EC50 [8, 15]: 56.1 nM | Emax [8, 15]: 59.8% | IC50 ([8]; Homo sapiens, 120 h, KARPAS-1106P cells, 5 days, read-out: % Viable Cells IC50): 25 nM | IC50 ([8]; Homo sapiens, KARPAS-1106P cells (Table 3), read-out: IC50): 111000 nM | % Viable Cells AUC ([8]; KARPAS-1106P cells, 5 days): 110.9 | % Viable Cells Emax ([8]; KARPAS-1106P cells, 5 days): 1.183% | % Viable Cells Sensitivity ([8]; KARPAS-1106P cells, 5 days): High (highly sensitive to Compound 1 with less than 6% viable cells remaining (Emax) after treatment) | Apoptosis AUC ([8]; KARPAS-1106P cells, 5 days): 597.7 | Apoptosis Sensitivity ([8]; KARPAS-1106P cells, 5 days): High | EC50 [9, 16]: 16.3 nM | Emax [9, 16]: 81.9% | IC50 ([9]; Homo sapiens, SU-DHL10, 120 h, SU-DHL-10 cells, 5 days, read-out: % Viable Cells IC50): 10 nM | IC50 ([9]; Homo sapiens, SU-DHL10, SU-DHL-10 cells (Table 3), read-out: IC50): 3400 nM | % Viable Cells AUC ([9]; SU-DHL-10 cells, 5 days): 3.371 | % Viable Cells Emax ([9]; SU-DHL-10 cells, 5 days): 2.477% | % Viable Cells Sensitivity ([9]; SU-DHL-10 cells, 5 days): High (highly sensitive to Compound 1 with less than 6% viable cells remaining (Emax) after treatment) | Apoptosis AUC ([9]; SU-DHL-10 cells, 5 days): 815.3 | Apoptosis Sensitivity ([9]; SU-DHL-10 cells, 5 days): High
